Experimental data: patent US9200005B2, “Inhibitor compounds of phosphodiesterase type 10A” (AbbVie Deutschland GmbH & Co. KG, priority 2013, dated 2015)

Assays:
PDE10A = PDE10A (UniProt Q9Y233); assay: Measurement of PDE activity (HTRF cAMP kit, recombinant PDE10A); type: biochemical, human, rat and mouse; conditions: substrate 20 nM, 60 minutes at 29° C.
[1] = Determination of the microsomal half-life / microsomal clearance, rat liver microsomes; type: in vitro ADME; conditions: 0.5 μM test substance, 0.25 mg of microsomal protein/mL, NADPH, 37° C.
Summary of the method: (§1)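 Compound (0.5 μM) was preincubated 5 min at 37 °C with rat or human liver microsomes (0.25 mg protein/mL) in 0.05 M phosphate pH 7.4, and NADPH (1 mg/mL) was then added. Samples taken at 0-30 min and quenched with acetonitrile were analysed by MS/MS. T½ was derived assuming first-order decay, and clearance […] was calculated from T½ and protein content.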

[2] = Determination of the microsomal half-life / microsomal clearance, human liver microsomes; type: in vitro ADME; conditions: 0.5 μM test substance, 0.25 mg of microsomal protein/mL, NADPH, 37° C.
Summary of the method: as §1

rats [3] = conditions: cited from earlier work
rats [4] = conditions: PCP (WO 03/093499); cited from earlier work
rats [5] = conditions: amphetamine (WO 03/093499); cited from earlier work

Row | SMILES | IC50 (PDE10A) | Rat mCl [1] | Human mCl [2] | catalepsy on its own (rats [3]; alone (WO 03/093499)) | cataleptic effect of the D2 receptor antagonist haloperidol (rats [3]; with haloperidol (WO 03/093499)) | hyperactivity in rats induced by PCP (rats [4]) | reduction of amphetamine-induced hyperactivity (rats [5])
1 | Cn1nc(OCc2ccco2)c2scc(-c3ccncc3)c2c1=O [Example 52, 7-(furan-2-ylmethoxy)-5-methyl-3-(pyridin-4-yl)thieno[2,3-d]pyridazin-4(5H)-one] | 100 to 200 nM | + (+: 100-220 μl min^−1 mg^−1) | ++ (++: <100 μl min^−1 mg^−1) |  |  |  | 
2 | COc1cc(OC)cc(Oc2nn(C)c(=O)c3c(-c4ccncc4)csc23)c1 [Example 92, 7-(3,5-dimethoxyphenoxy)-5-methyl-3-(pyridin-4-yl)thieno[2,3-d]pyridazin-4(5H)-one] | < 100 nM | ++ (++: <100 μl min^−1 mg^−1) | + (+: 100-220 μl min^−1 mg^−1) |  |  |  | 
3 | Cn1nc(Oc2ccccc2)c2scc(-c3ccncc3)c2c1=O [Example 81, 5-methyl-7-phenoxy-3-(pyridin-4-yl)thieno[2,3-d]pyridazin-4(5H)-one] | 200 to 500 nM | ++ (++: <100 μl min^−1 mg^−1) | ++ (++: <100 μl min^−1 mg^−1) |  |  |  | 
4 | Cn1nc(-c2ccncc2)c2scc(NC3COC3)c2c1=O [Example 2, 5-methyl-3-(oxetan-3-ylamino)-7-(pyridin-4-yl)thieno[2,3-d]pyridazin-4(5H)-one] | 200 to 500 nM | + (+: 100-220 μl min^−1 mg^−1) | ++ (++: <100 μl min^−1 mg^−1) |  |  |  | 
5 | Cn1nc(-c2ccc(C#N)cc2)c2scc(-c3ccncc3)c2c1=O [Example 95, 4-[5-methyl-4-oxo-3-(pyridin-4-yl)-4,5-dihydrothieno[2,3-d]pyridazin-7-yl]benzonitrile] | < 100 nM | ++ (++: <100 μl min^−1 mg^−1) | ++ (++: <100 μl min^−1 mg^−1) |  |  |  | 
6 | Cn1nc(OCc2cccc(C(N)=O)c2)c2scc(-c3ccncc3)c2c1=O.O=C(O)C(F)(F)F [Example 67, 3-({[5-methyl-4-oxo-3-(pyridin-4-yl)-4,5-dihydrothieno[2,3-d]pyridazin-7-yl]oxy}methyl)benzamide trifluoroacetate] | < 100 nM | ++ (++: <100 μl min^−1 mg^−1) | ++ (++: <100 μl min^−1 mg^−1) |  |  |  | 
7 | Cn1nc(OCc2coc3ccccc23)c2scc(-c3ccncc3)c2c1=O [Example 63, 7-(1-benzofuran-3-ylmethoxy)-5-methyl-3-(pyridin-4-yl)thieno[2,3-d]pyridazin-4(5H)-one] | 100 to 200 nM | ++ (++: <100 μl min^−1 mg^−1) | ++ (++: <100 μl min^−1 mg^−1) |  |  |  | 
8 | Cn1nc(OCc2cccc(C#N)c2)c2scc(-c3ccncc3)c2c1=O.O=C(O)C(F)(F)F [Example 59, 3-({[5-methyl-4-oxo-3-(pyridin-4-yl)-4,5-dihydrothieno[2,3-d]pyridazin-7-yl]oxy}methyl)benzonitrile trifluoroacetate] | < 100 nM | ++ (++: <100 μl min^−1 mg^−1) | ++ (++: <100 μl min^−1 mg^−1) |  |  |  | 
9 | CCn1nc(-c2ccncc2)c2scc(-c3cncnc3)c2c1=O [Example 145, 5-ethyl-7-(pyridin-4-yl)-3-(pyrimidin-5-yl)thieno[2,3-d]pyridazin-4(5H)-one] | < 100 nM | ++ (++: <100 μl min^−1 mg^−1) | ++ (++: <100 μl min^−1 mg^−1) |  |  |  | 
10 | O=c1c2c(-c3cncnc3)csc2c(-c2ccncc2)nn1CC1CC1 [Example 146, 5-(cyclopropylmethyl)-7-(pyridin-4-yl)-3-(pyrimidin-5-yl)thieno[2,3-d]pyridazin-4(5H)-one] | < 100 nM | ++ (++: <100 μl min^−1 mg^−1) | ++ (++: <100 μl min^−1 mg^−1) |  |  |  | 
11 | Cn1nc(OCc2cccc(OC(F)F)c2)c2scc(-c3ccncc3)c2c1=O [Example 76, 7-{[3-(difluoromethoxy)benzyl]oxy}-5-methyl-3-(pyridin-4-yl)thieno[2,3-d]pyridazin-4(5H)-one] | < 100 nM | ++ (++: <100 μl min^−1 mg^−1) | ++ (++: <100 μl min^−1 mg^−1) |  |  |  | 
12 | COc1ccc(Cc2nccc3cc(OC)c(OC)cc23)cc1OC [Papaverine, papaverine] |  |  |  | did not cause catalepsy | potentiated | reduced | insignificant
13 | Cn1nc(Oc2ccc3c(c2)OCO3)c2scc(-c3ccncc3)c2c1=O [Example 89, 7-(1,3-benzodioxol-5-yloxy)-5-methyl-3-(pyridin-4-yl)thieno[2,3-d]pyridazin-4(5H)-one] | 200 to 500 nM | + (+: 100-220 μl min^−1 mg^−1) | ++ (++: <100 μl min^−1 mg^−1) |  |  |  | 
14 | CCn1nc(-c2ccncc2)c2scc(-c3ccncc3)c2c1=O [Example 136, 5-ethyl-3,7-di(pyridin-4-yl)thieno[2,3-d]pyridazin-4(5H)-one] | < 100 nM | ++ (++: <100 μl min^−1 mg^−1) | ++ (++: <100 μl min^−1 mg^−1) |  |  |  | 
15 | Cn1nc(OCc2cccnc2)c2scc(-c3ccncc3)c2c1=O [Example 147, 5-methyl-3-(pyridin-4-yl)-7-(pyridin-3-ylmethoxy)thieno[2,3-d]pyridazin-4(5H)-one] | < 100 nM | + (+: 100-220 μl min^−1 mg^−1) | + (+: 100-220 μl min^−1 mg^−1) |  |  |  | 
